In paper PMC10150926, “PHT427 as an effective New Delhi metallo-β-lactamase-1 (NDM-1) inhibitor restored the susceptibility of meropenem against Enterobacteriaceae producing NDM-1” (Frontiers in Microbiology, 2023):
pKd: −log10 of the molar value.

Experiments:
Format in all cases: binding
[1] = molecular target: T1, New Delhi metallo-β-lactamase-1 (NDM-1) (Klebsiella pneumoniae, UniProt C7C422, N220A); test: SPR
T1 construct: gene blaNDM-1

[2] = molecular target: T2, New Delhi metallo-β-lactamase-1 (NDM-1) (Klebsiella pneumoniae, UniProt C7C422, Q123A); test: SPR
T2 construct: gene blaNDM-1

[3] = molecular target: T3, New Delhi metallo-β-lactamase-1 (NDM-1) (Klebsiella pneumoniae, UniProt C7C422); test: SPR (also fluorescence quenching; purified enzyme inhibition with meropenem, IC50 […])
T3 construct: gene blaNDM-1

Work on `CCCCCCCCCCCCc1ccc(S(=O)(=O)Nc2nncs2)cc1` [PHT427, 4-dodecyl-N-1,3,4-thiadiazol-2-yl-benzenesulfonamide] yielded a pKd [1] of 3.05, a pKd [2] of 3.91 and a pKd [3] of 4.20.
